This note sets out measurements from ChEMBL document CHEMBL1137175, “Nonpeptide alpha V beta 3 antagonists. Part 9: Improved pharmacokinetic profile through the use of an aliphatic, des-amide backbone” (Bioorg Med Chem Lett, 2004).

The target in series [1] is T1, Integrin alpha-V/beta-3 (Homo sapiens, UniProt P05106+P06756). Kind of series: Inhibition of binding to alpha v beta 3 receptor. The format is protein-complex assay.
The target in series [2] is T1, Integrin alpha-V/beta-3. Kind of series: Inhibition of alpha v beta 3 receptor binding. In kind it is protein-complex assay.
A short description of series [3]: Half life of compound is determined in dogs. The format is ADME, Canis lupus familiaris. To be noted: dog, in vivo.
Series [4] in a line: Partition coefficient (logP). The format is physicochemical. To be noted: octanol/water.
The nature of series [5]: Concentration required for plasma clearance is determined in dogs. To be noted: dog. The format is ADME, organism-based, Canis lupus familiaris.
Series [6] in a line: Oral bioavailability in dog. The format is ADME, organism-based, Canis lupus familiaris. To be noted: in vivo.

T1 sequence (P05106 27-788 limits assumed): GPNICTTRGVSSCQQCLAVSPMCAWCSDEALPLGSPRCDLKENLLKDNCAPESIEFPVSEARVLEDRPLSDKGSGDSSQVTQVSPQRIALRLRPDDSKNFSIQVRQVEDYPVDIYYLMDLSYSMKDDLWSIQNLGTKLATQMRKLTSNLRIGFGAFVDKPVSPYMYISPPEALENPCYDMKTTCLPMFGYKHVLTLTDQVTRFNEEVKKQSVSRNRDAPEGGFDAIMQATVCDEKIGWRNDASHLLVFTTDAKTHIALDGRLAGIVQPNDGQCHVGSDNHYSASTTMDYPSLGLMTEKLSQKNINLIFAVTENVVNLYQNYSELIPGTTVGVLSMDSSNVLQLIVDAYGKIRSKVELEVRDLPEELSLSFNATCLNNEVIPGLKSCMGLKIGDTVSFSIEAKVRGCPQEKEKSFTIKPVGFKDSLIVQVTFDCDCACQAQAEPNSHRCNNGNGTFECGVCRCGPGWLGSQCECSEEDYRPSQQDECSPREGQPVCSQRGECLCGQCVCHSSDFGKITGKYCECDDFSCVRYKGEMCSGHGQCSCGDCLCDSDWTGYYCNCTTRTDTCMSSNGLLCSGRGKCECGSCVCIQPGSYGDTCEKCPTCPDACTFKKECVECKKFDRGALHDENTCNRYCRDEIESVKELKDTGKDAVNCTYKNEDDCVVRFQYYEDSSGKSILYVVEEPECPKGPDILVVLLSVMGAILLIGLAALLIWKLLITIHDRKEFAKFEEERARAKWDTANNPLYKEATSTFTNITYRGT
T1 sequence (P06756 31-889 limits assumed): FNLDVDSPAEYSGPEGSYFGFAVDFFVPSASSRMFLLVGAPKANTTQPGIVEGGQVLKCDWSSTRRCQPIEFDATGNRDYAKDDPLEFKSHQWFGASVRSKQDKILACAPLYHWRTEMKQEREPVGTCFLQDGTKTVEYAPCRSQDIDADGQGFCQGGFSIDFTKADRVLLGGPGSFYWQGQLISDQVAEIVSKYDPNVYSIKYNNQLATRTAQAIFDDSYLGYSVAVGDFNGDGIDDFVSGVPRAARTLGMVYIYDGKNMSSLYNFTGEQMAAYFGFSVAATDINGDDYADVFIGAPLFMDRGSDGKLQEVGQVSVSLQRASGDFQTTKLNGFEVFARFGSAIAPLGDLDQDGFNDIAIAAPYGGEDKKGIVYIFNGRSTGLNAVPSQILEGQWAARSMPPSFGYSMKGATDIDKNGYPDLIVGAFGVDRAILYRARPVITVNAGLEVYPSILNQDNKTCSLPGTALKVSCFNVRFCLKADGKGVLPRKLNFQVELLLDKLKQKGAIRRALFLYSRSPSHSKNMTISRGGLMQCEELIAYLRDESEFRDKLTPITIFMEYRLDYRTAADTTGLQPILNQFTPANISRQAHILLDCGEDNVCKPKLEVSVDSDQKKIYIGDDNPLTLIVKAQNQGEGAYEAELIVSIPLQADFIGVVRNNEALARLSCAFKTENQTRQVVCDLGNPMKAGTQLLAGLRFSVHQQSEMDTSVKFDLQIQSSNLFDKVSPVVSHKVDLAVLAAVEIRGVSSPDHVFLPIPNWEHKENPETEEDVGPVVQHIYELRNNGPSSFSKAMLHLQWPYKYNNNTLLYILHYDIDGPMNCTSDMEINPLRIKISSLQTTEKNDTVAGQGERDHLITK
T1 sequence (P06756 891-1048 limits assumed): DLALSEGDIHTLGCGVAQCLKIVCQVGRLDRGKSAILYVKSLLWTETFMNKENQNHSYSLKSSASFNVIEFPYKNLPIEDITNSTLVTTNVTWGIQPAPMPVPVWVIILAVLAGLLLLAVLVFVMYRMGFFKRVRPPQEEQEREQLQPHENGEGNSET

As usually defined, the IC50 is the concentration that gives 50% inhibition. A lower IC50 goes with greater potency. `O=C(N[C@@H](CCCCCCCc1ccc2c(n1)NCCC2)C(=O)O)c1ccccc1` yielded an IC50 at Integrin alpha-V/beta-3 [1] of 71.7 nM.

For `CC1(C)[C@@H]2CC[C@@]1(CS(=O)(=O)N[C@@H](CNC(=O)CCCCc1ccc3c(n1)NCCC3)C(=O)O)C(=O)C2`, the 50% inhibitory concentration (IC50) on Integrin alpha-V/beta-3 [2] turned out to be 0.1 nM.

Consider `O=C(O)[C@H](CCCCCCCc1ccc2c(n1)NCCC2)NS(=O)(=O)C1CCCCC1`, for which the IC50 on Integrin alpha-V/beta-3 [1] amounted to 49.8 nM. In other words, the double-digit nanomolar range.

At Integrin alpha-V/beta-3 [2], `Cc1ccc(S(=O)(=O)N[C@@H](CNC(=O)CCCCc2ccc3c(n2)NCCC3)C(=O)O)cc1` returned an IC50 of 0.4 nM.

The compound `O=C(O)[C@H](CCCCCCCc1ccc2c(n1)NCCC2)NS(=O)(=O)Cc1ccccc1` displayed a 50% inhibitory concentration (IC50) at Integrin alpha-V/beta-3 [1] of 34.5 nM.

`O=C(CCCCc1ccc2c(n1)NCCC2)NC[C@H](NC(=O)c1ccccc1)C(=O)O`: the 50% inhibitory concentration (IC50) at Integrin alpha-V/beta-3 [2] was determined as 73.8 nM.

`O=C(CCCCc1ccc2c(n1)NCCC2)NC[C@H](NC(=O)OCc1ccccc1)C(=O)O`: the IC50 at Integrin alpha-V/beta-3 [2] came to 1.8 nM.

Take `O=C(O)[C@H](CCCCCCCc1ccc2c(n1)NCCC2)NS(=O)(=O)CC1CCCCC1`: the IC50 at Integrin alpha-V/beta-3 [1] amounted to 18.1 nM.

In turn, `CC1(C)[C@@H]2CC[C@@]1(CS(=O)(=O)N[C@@H](CCCCCCCc1ccc3c(n1)NCCC3)C(=O)O)C(=O)C2` returned a half-inhibitory concentration (IC50) on Integrin alpha-V/beta-3 [1] of 0.8 nM. This IC50 lies about 23-fold lower than the previous one.

At Integrin alpha-V/beta-3 [1], `O=C(O)[C@H](CCCCCCCc1ccc2c(n1)NCCC2)NS(=O)(=O)c1ccccc1` gave a half-inhibitory concentration (IC50) of 11.2 nM.

In turn, `CCCCS(=O)(=O)N[C@@H](CCCCCCCc1ccc2c(n1)NCCC2)C(=O)O` gave an IC50 at Integrin alpha-V/beta-3 [1] of 21.3 nM.

`O=C(NCc1ccccc1)N[C@@H](CCCCCCCc1ccc2c(n1)NCCC2)C(=O)O` gave an IC50 at Integrin alpha-V/beta-3 [1] of 4.7 nM.

As for `O=C(N[C@@H](CCCCCCCc1ccc2c(n1)NCCC2)C(=O)O)OCc1ccccc1`, the IC50 at Integrin alpha-V/beta-3 [1] worked out at 6.1 nM.

The compound `O=C(CCCCc1ccc2c(n1)NCCC2)NC[C@H](NS(=O)(=O)c1ccccc1)C(=O)O` showed a concentration for half-maximal inhibition (IC50) at Integrin alpha-V/beta-3 [2] of 0.3 nM.

In the case of `CCCCS(=O)(=O)N[C@@H](CNC(=O)CCCCc1ccc2c(n1)NCCC2)C(=O)O`, the half-maximal inhibitory concentration (IC50) at Integrin alpha-V/beta-3 [2] worked out at 2.3 nM. Against the preceding compound, the IC50 is about 7.7-fold higher.

The half-life is how long it takes for the measured level to halve. Higher therefore signals slow decline. What is called logP is a log measure of how a compound divides between an organic and an aqueous phase. Read a high logP as higher lipophilicity. What is called clearance is the rate of elimination divided by the concentration. A lower clearance goes with inefficient removal. For orientation: bioavailability means the share of a dose that reaches the circulation, judged against a reference dose that is usually intravenous. As to `O=C(Cc1ccccc1)N[C@@H](CCCCCCCc1ccc2c(n1)NCCC2)C(=O)O`, in series [3], the half-life is 19.2 h. At Integrin alpha-V/beta-3 [1], this compound yielded a 50% inhibitory concentration (IC50) of 51.6 nM. In series [4], this compound came in with a logP of 1.13. This compound yielded a clearance in series [5] of 0.78 L/h/kg. The compound also gave a bioavailability in series [6] of 17%.
